Source: PubChem BioAssay AID256 (DTP/NCI, 2004)
Several values for one entry are separate records, joined by “and”; a condition that tells them apart may be missing. Equal values may be shown once. Inconclusive results and toxic doses are left out.

Test system: CD2F1 mice, L1210 leukemia ip, survival T/C
Assay: NCI In Vivo Anticancer Drug Screen. Data for tumor model L1210 Leukemia (intraperitoneal) in CD2F1 (CDF1) mice
Conditions: higher = longer survival
In short: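 Implant tumor; dose compound or vehicle; measure endpoint in both groups; report treated divided by control.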

[1] = endpoint: mean survival time, dose: 25.0 mg/kg/injection, schedule: Q04DX003 (ip), vehicle: saline with Tween-80
[2] = endpoint: mean survival time, dose: 100.0 mg/kg/injection, schedule: Q04DX003 (ip), vehicle: saline
[3] = endpoint: mean survival time, dose: 200.0 mg/kg/injection, schedule: Q04DX003 (ip), vehicle: saline
[4] = endpoint: mean survival time, dose: 400.0 mg/kg/injection, schedule: Q04DX003 (ip), vehicle: saline
[5] = endpoint: mean survival time, dose: 100.0 mg/kg/injection, schedule: Q04DX002 (ip), vehicle: saline with Tween-80
[6] = endpoint: mean survival time, dose: 200.0 mg/kg/injection, schedule: Q04DX002 (ip), vehicle: saline with Tween-80
[7] = endpoint: mean survival time, dose: 400.0 mg/kg/injection, schedule: Q04DX002 (ip), vehicle: saline with Tween-80
[8] = endpoint: mean survival time, dose: 50.0 mg/kg/injection, schedule: Q01DX009 (ip), vehicle: saline with Tween-80
[9] = endpoint: mean survival time, dose: 100.0 mg/kg/injection, schedule: Q01DX009 (ip), vehicle: saline with Tween-80
[10] = endpoint: mean survival time, dose: 100.0 mg/kg/injection, schedule: Q04DX003 (ip), vehicle: saline with Tween-80
[11] = endpoint: mean survival time, dose: 200.0 mg/kg/injection, schedule: Q04DX003 (ip), vehicle: saline with Tween-80
[12] = endpoint: mean survival time, dose: 200.0 mg/kg/injection, schedule: Q01DX009 (ip), vehicle: saline with Tween-80
[13] = endpoint: mean survival time, dose: 400.0 mg/kg/injection, schedule: Q01DX009 (ip), vehicle: saline with Tween-80
[14] = endpoint: mean survival time, dose: 50.0 mg/kg/injection, schedule: Q04DX003 (ip), vehicle: saline with Tween-80
[15] = endpoint: mean survival time, dose: 400.0 mg/kg/injection, schedule: Q04DX003 (ip), vehicle: saline with Tween-80
[16] = endpoint: mean survival time, dose: 100.0 mg/kg/injection, schedule: Q01DX001 (ip), vehicle: saline with Tween-80
[17] = endpoint: mean survival time, dose: 200.0 mg/kg/injection, schedule: Q01DX001 (ip), vehicle: saline with Tween-80

Compound: NC(=S)N/N=C/c1ccc(F)cn1
- T/C (endpoint: mean survival time, dose: 11.0 mg/kg/injection, schedule: Q04DX003 (ip), vehicle: saline with Tween-80): 105 % of control
- T/C (endpoint: mean survival time, dose: 12.5 mg/kg/injection, schedule: Q04DX002 (ip), vehicle: saline with Tween-80): 118 % of control
- T/C (endpoint: mean survival time, dose: 16.5 mg/kg/injection, schedule: Q04DX003 (ip), vehicle: saline with Tween-80): 110 % of control
- T/C [1]: 110 % of control

Compound: C1CCC2CN(CCCN3CCOCC3)CC2C1 (stereo unspecified)
- T/C (endpoint: mean survival time, dose: 100.0 mg/kg/injection, schedule: Q01DX009 (ip), vehicle: saline): 102 % of control
- T/C (endpoint: mean survival time, dose: 200.0 mg/kg/injection, schedule: Q01DX009 (ip), vehicle: saline): 96 % of control

Compound: CCCCCc1cccc(CC(=O)OCC)n1
- T/C [2]: 89 % of control
- T/C [3]: 94 % of control
- T/C [4]: 94 % of control

Compound: O=c1nc(N2CCSCC2)ccn1C1OC(CO)C(O)C1O (stereo unspecified)
- T/C (endpoint: median survival time, dose: 12.5 mg/kg/injection, schedule: Q01DX005 (ip), vehicle: water): 100 % of control
- T/C (endpoint: median survival time, dose: 25.0 mg/kg/injection, schedule: Q01DX005 (ip), vehicle: water): 101 % of control
- T/C (endpoint: median survival time, dose: 50.0 mg/kg/injection, schedule: Q01DX005 (ip), vehicle: water): 102 % of control
- T/C (endpoint: median survival time, dose: 100.0 mg/kg/injection, schedule: Q01DX005 (ip), vehicle: water): 101 % of control
- T/C (endpoint: median survival time, dose: 200.0 mg/kg/injection, schedule: Q01DX005 (ip), vehicle: water): 103 % of control

Compound: CCOC(=O)c1c(-c2ccccc2)csc1NC(=O)CBr
- T/C (endpoint: mean survival time, dose: 75.0 mg/kg/injection, schedule: Q01DX001 (ip), vehicle: saline): 106 % of control
- T/C (endpoint: mean survival time, dose: 150.0 mg/kg/injection, schedule: Q01DX001 (ip), vehicle: saline): 101 % of control
- T/C (endpoint: mean survival time, dose: 300.0 mg/kg/injection, schedule: Q01DX001 (ip), vehicle: saline): 98 % of control

Compound: Cc1ccccc1NC(=O)Oc1ccc(C(C)(C)C)cc1
- T/C [5]: 97 % of control
- T/C [6]: 86 % of control
- T/C [7]: 89 % of control

Compound: CCNc1nc(NCC)nc(SC)n1
- T/C [8]: 100 % of control
- T/C [9]: 89 % of control
- T/C [10]: 100 % of control
- T/C [11]: 97 % of control

Compound: CCn1c(N)c(N)c(=O)[nH]c1=S
- T/C [9]: 94 % of control
- T/C [12]: 98 % of control
- T/C [13]: 88 % of control

Compound: Clc1ccc(N=Nc2ccc(Cl)cc2)cc1
- T/C [1]: 95 % of control
- T/C [14]: 95 % of control
- T/C [10]: 92 % of control

Compound: O=C(NC(=S)Nc1ccccc1Cl)c1ccc(Cl)cc1
- T/C [5]: 103 % of control
- T/C [6]: 88 % of control
- T/C [7]: 88 % of control

Compound: CC1C=CC(=O)O1 (stereo unspecified)
- T/C (endpoint: mean survival time, dose: 50.0 mg/kg/injection, schedule: Q04DX002 (ip), vehicle: saline with Tween-80): 100 % of control
- T/C [5]: 103 % of control

Compound: CN=Cc1ccc(OC)cc1
- T/C (endpoint: mean survival time, dose: 25.0 mg/kg/injection, schedule: Q01DX009 (ip), vehicle: saline with Tween-80): 116 % of control
- T/C [8]: 96 % of control
- T/C [9]: 102 % of control
- T/C [10]: 94 % of control

Compound: CCCC(Sc1nc(N)nc2nc[nH]c12)C(=O)O (stereo unspecified)
- T/C [1]: 103 % of control
- T/C [14]: 110 % of control
- T/C [10]: 118 % of control
- T/C (endpoint: mean survival time, dose: 150.0 mg/kg/injection, schedule: Q04DX003 (ip), vehicle: saline with Tween-80): 151 % of control
- T/C (endpoint: mean survival time, dose: 300.0 mg/kg/injection, schedule: Q04DX003 (ip), vehicle: saline with Tween-80): 156 % of control
- T/C [15]: 168 % of control

Compound: CCOC(=O)C(C)C(=O)NCc1ccccc1 (stereo unspecified)
- T/C (endpoint: mean survival time, dose: 25.0 mg/kg/injection, schedule: Q01DX009 (ip), vehicle: Klucel (hydroxypropylcellulose) (HPC)): 95 % of control
- T/C (endpoint: mean survival time, dose: 50.0 mg/kg/injection, schedule: Q01DX009 (ip), vehicle: Klucel (hydroxypropylcellulose) (HPC)): 96 % of control
- T/C (endpoint: mean survival time, dose: 100.0 mg/kg/injection, schedule: Q01DX009 (ip), vehicle: Klucel (hydroxypropylcellulose) (HPC)): 96 % of control
- T/C (endpoint: mean survival time, dose: 200.0 mg/kg/injection, schedule: Q01DX009 (ip), vehicle: Klucel (hydroxypropylcellulose) (HPC)): 93 % of control
- T/C (endpoint: mean survival time, dose: 400.0 mg/kg/injection, schedule: Q01DX009 (ip), vehicle: Klucel (hydroxypropylcellulose) (HPC)): 98 % of control

Compound: O=C1CSC(=S)N1Cc1ccccc1
- T/C [10]: 101 % of control
- T/C [11]: 97 % of control
- T/C [15]: 97 % of control

Compound: CC(=O)Nc1ccc(C)cc1Cl
- T/C [16]: 96 % of control
- T/C [17]: 100 % of control
- T/C (endpoint: mean survival time, dose: 400.0 mg/kg/injection, schedule: Q01DX001 (ip), vehicle: saline with Tween-80): 93 % of control

Compound: Nc1ccc(CCCCc2ccc(Cl)c(S(=O)(=O)F)c2)c(Cl)c1
- T/C [9]: 95 % of control
- T/C [10]: 95 % of control
- T/C [12]: 92 % of control
- T/C [11]: 101 % of control
- T/C [13]: 94 % of control
- T/C [15]: 94 % of control

Compound: C[Si](C)C(Cl)Cl
- T/C (endpoint: mean survival time, dose: 75.0 mg/kg/injection, schedule: Q01DX009 (ip), vehicle: saline with Tween-80): 96 % of control
- T/C (endpoint: mean survival time, dose: 150.0 mg/kg/injection, schedule: Q01DX009 (ip), vehicle: saline with Tween-80): 98 % of control
- T/C (endpoint: mean survival time, dose: 300.0 mg/kg/injection, schedule: Q01DX009 (ip), vehicle: saline with Tween-80): 102 % of control

Compound: COC(=O)c1cccc2c1OCO2
- T/C [9]: 101 % of control
- T/C [10]: 100 % of control
- T/C [12]: 101 % of control
- T/C [11]: 100 % of control
- T/C [13]: 101 % of control
- T/C [15]: 103 % of control

Compound: CCCCCCC#CC(=O)OC
- T/C [9]: 101 % of control
- T/C [10]: 96 % of control
- T/C [12]: 101 % of control
- T/C [11]: 102 % of control
- T/C [15]: 97 % of control

Compound: CC(/C=N\O)=N\O
- T/C [16]: 97 % of control
- T/C [17]: 103 % of control

Compound: COc1ccc(N=C(c2ccccc2)c2ccccc2)cc1
- T/C [9]: 95 % of control
- T/C [2]: 89 % of control
- T/C [12]: 97 % of control
- T/C [3]: 101 % of control
- T/C [13]: 91 % of control
- T/C [4]: 101 % of control

Compound: CC(=O)OCCN1CCN(CC/C=C2\c3ccccc3Sc3ccc(Cl)cc32)CC1
- T/C (endpoint: mean survival time, dose: 3.13 mg/kg/injection, schedule: Q01DX009 (ip), vehicle: saline): 100 % of control
- T/C (endpoint: mean survival time, dose: 6.25 mg/kg/injection, schedule: Q01DX009 (ip), vehicle: saline): 116 % of control and 105 % of control
- T/C (endpoint: mean survival time, dose: 6.25 mg/kg/injection, schedule: Q04DX003 (ip), vehicle: saline): 98 % of control
- T/C (endpoint: mean survival time, dose: 12.5 mg/kg/injection, schedule: Q01DX009 (ip), vehicle: saline): 117 % of control and 123 % of control
- T/C (endpoint: mean survival time, dose: 12.5 mg/kg/injection, schedule: Q04DX003 (ip), vehicle: saline): 89 % of control
- T/C (endpoint: mean survival time, dose: 25.0 mg/kg/injection, schedule: Q01DX009 (ip), vehicle: saline): 117 % of control
- T/C (endpoint: mean survival time, dose: 25.0 mg/kg/injection, schedule: Q04DX003 (ip), vehicle: saline): 98 % of control and 111 % of control
- T/C (endpoint: mean survival time, dose: 50.0 mg/kg/injection, schedule: Q04DX003 (ip), vehicle: saline): 101 % of control

Compound: Cc1cc(C)c(F)[c]([Hg][Br])c1N
- T/C (endpoint: mean survival time, dose: 3.13 mg/kg/injection, schedule: Q01DX009 (ip), vehicle: Klucel (hydroxypropylcellulose) (HPC)): 102 % of control
- T/C (endpoint: mean survival time, dose: 6.25 mg/kg/injection, schedule: Q01DX009 (ip), vehicle: Klucel (hydroxypropylcellulose) (HPC)): 113 % of control
- T/C (endpoint: mean survival time, dose: 12.5 mg/kg/injection, schedule: Q01DX009 (ip), vehicle: Klucel (hydroxypropylcellulose) (HPC)): 105 % of control

Compound: Nc1cc2c(c[n+](CCCBr)c3ccccc23)c2ccccc12
- T/C (endpoint: mean survival time, dose: 3.13 mg/kg/injection, schedule: Q04DX003 (ip), vehicle: other): 111 % of control
- T/C (endpoint: mean survival time, dose: 6.25 mg/kg/injection, schedule: Q04DX003 (ip), vehicle: other): 122 % of control
- T/C (endpoint: mean survival time, dose: 12.5 mg/kg/injection, schedule: Q04DX003 (ip), vehicle: other): 120 % of control
- T/C (endpoint: mean survival time, dose: 25.0 mg/kg/injection, schedule: Q04DX003 (ip), vehicle: other): 109 % of control
- T/C (endpoint: mean survival time, dose: 50.0 mg/kg/injection, schedule: Q04DX003 (ip), vehicle: other): 87 % of control

Compound: Clc1ccc(C[n+]2ccccc2)cc1Cl
- T/C (endpoint: mean survival time, dose: 5.0 mg/kg/injection, schedule: Q01DX009 (ip), vehicle: saline): 98 % of control
- T/C (endpoint: mean survival time, dose: 10.0 mg/kg/injection, schedule: Q01DX009 (ip), vehicle: saline): 104 % of control
- T/C (endpoint: mean survival time, dose: 10.0 mg/kg/injection, schedule: Q04DX003 (ip), vehicle: saline): 100 % of control
- T/C (endpoint: mean survival time, dose: 20.0 mg/kg/injection, schedule: Q01DX009 (ip), vehicle: saline): 98 % of control
- T/C (endpoint: mean survival time, dose: 20.0 mg/kg/injection, schedule: Q04DX003 (ip), vehicle: saline): 94 % of control

Compound: O=[Se](O)O.[NH-]C1CCCCC1[NH-].[Pt+2] (stereo unspecified)
- T/C (endpoint: mean survival time, dose: 1.0 mg/kg/injection, schedule: Q04DX003 (ip), vehicle: dextrose): 124 % of control
